Measured values reported in patent publication US9545393B2, “Methods and compositions for treating pain” (The Board of Trustees of the Leland Stanford Junior …, priority 2012, dated 2017).
Entries after “also recorded” stand apart in the source; their conditions may differ.

Tests used:
[1] = previously shown (Chen 2008; Koda 2010); cited from earlier work
[2] = tested on: ALDH2 wild type mice; assay: von Frey hair test, carrageenan-induced acute pain model, wild type mice; assay type: in vivo, mouse; details: von Frey hair (1.20 gram in FIG. 1E), Alda-1 2 mg/kg s.c.
[3] = tested on: ALDH2 *1/*2 heterozygous mice; assay: von Frey hair test, carrageenan-induced acute pain model, ALDH2 *1/*2 heterozygous mice; assay type: in vivo, mouse; details: von Frey hair (1.20 gram in FIG. 1E), Alda-1 2 mg/kg s.c.
[4] = tested on: 4-hydroxynonenal (4-HNE) protein adducts; assay: Western blot of 4-HNE protein adducts in inflamed paw; assay type: in vivo, rat; details: rats, 3 hours after carrageenan; P<0.01
Experimental: (§1) Biochemical Studies In Rats and Mice. Protein was isolated from rat paw tissue at 3 hours after treatment or from liver tissue of mutant or wild type mice. Tissues were homogenized in buffer containing (Hepes 10 mM, NaCl 0.9%, EGTA 1 mM, DTPA 100 μM, Triton-X 1%, Protease and Phosphatase inhibitors (AEBSF, Aprotinin, Bestatin, E-64, Leupeptin, Pepstatin A, Sodium orthovanadate, Sodium molybdate, Sodium tartrate, Imidazole, Cantharidin, (−)-p-Bromolevamisole oxalate and Calyculin A). The samples were centrifuged at 700 g for 5 min at 4° C. Mitochondrial fraction from liver was obtained as previously described (Chen, et al. (2008) Activation of aldehyde dehydrogenase-2 reduces ischemic damage to the heart. Science 321, 1493-1495; Sun, L., et al. ALDH2 activator inhibits increased myocardial infarction injury by nitroglycerin tolerance. Sci Transl Med 3, 107ra111). Activation of aldehyde dehydrogenase-2 reduces ischemic damage to the heart. Science 2008; 321:1493-5). The protein concentration was determined in the supernatants by using Bradford (Bradford, M. M. (1976). A rapid and sensitive method for the quantitation of microgram quantities of protein utilizing the principle of protein-dye binding. Anal Biochem 72, 248-254).
(§2) Western blot analysis. […] Quantification analysis of blots was performed with Image J software, using GAPDH as a loading control.

[5] = tested on: rats subjected to prostaglandin E2 insult to the right hind paw; assay: Randall-Selitto paw pressure test, prostaglandin E2-induced hyperalgesia in rats; assay type: in vivo, rat
Experimental: (§3) Rats. Male Wistar rats (170-190 g) were provided by Charles River Laboratories or Butantan Institute Animal Facility and housed in a temperature-controlled (22±1° C.) and light-controlled (12/12 h light/dark cycle) room. All rats were housed in their surrounding for at least 3 days. Groups of 5-6 rats were used.
Drugs Used. 0.1 ml saline (control), carrageenan (200 μg for rats, 100 μg for mice; Marine Colloids), or prostaglandin E2 (100 ng, Sigma) was administered by intraplantar injection into the right hind paw to induce hyperalgesia. […]
Nociception Assessment. […] Nociceptive response was assessed by the von Frey method for mice and the Randall-Selitto method for rats immediately before and 180 minutes after carrageenan or prostaglandin E2 injection. […]
Randall-Selitto method: Nociceptive threshold was determined using the Randall-Selitto paw pressure test (Ugo-Basile), as previously described (Gutierrez V P, et al., (2008) Crotalphine induces potent antinociception in neuropathic pain by acting at peripheral opioid receptors. European journal of pharmacology 594: 84-92). […]

[6] = tested on: neutrophil elastase; assay: Western blot of neutrophil elastase in paw after carrageenan; assay type: in vivo, rat; details: rats, carrageenan group treated with Alda-1; Western blot quantification
Experimental: as §1, §2

[7] = tested on: rats subjected to carrageenan insult to the right hind paw; assay: Randall-Selitto paw pressure test, carrageenan-induced hyperalgesia in rats; assay type: in vivo, rat
Experimental: as §3
Drugs Used. 0.1 ml saline (control), carrageenan (200 μg for rats, 100 μg for mice; Marine Colloids), or prostaglandin E2 (100 ng, Sigma) was administered by intraplantar injection into the right hind paw to induce hyperalgesia. These doses were chosen based on previous studies by our laboratory groups (Aley K O, et al., (2000) Chronic hypersensitivity for inflammatory nociceptor sensitization mediated by the epsilon isozyme of protein kinase C. The Journal of neuroscience: the official journal of the Society for Neuroscience 20: 4680-4685; Konno K, et al., (2008) Crotalphine, a novel potent analgesic peptide from the venom of the South American rattlesnake Crotalus durissus terrificus. Peptides 29: 1293-1304).
Alda-1 dose (2 mg/kg/per injection, dissolved in 50% PEG/50% DMSO) was established in preliminary studies and given in multiple doses due to its estimated short half-life. Alda-1 was injected subcutaneously to the dorsal side of the neck 15 minutes before carrageenan or saline, and again at 30 and 150 minutes after carrageenan, prostaglandin E2 or saline injection. One subset of animals received Alda-1 only 30 and 150 minutes after carrageenan injection. Where indicated, naloxone (1 mg/kg per injection) or vehicle (saline) was given 10 minutes prior to each Alda-1 treatment to the dorsal side of the neck.
Nociception Assessment. The experimental performer was blinded to both genotype and/or treatments. Nociceptive response was assessed by the von Frey method for mice and the Randall-Selitto method for rats immediately before and 180 minutes after carrageenan or prostaglandin E2 injection. Both mice and rats were acclimated to the testing equipment one day before baseline testing.
Randall-Selitto method: Nociceptive threshold was determined using the Randall-Selitto paw pressure test (Ugo-Basile), as previously described (Gutierrez V P, et al., (2008) Crotalphine induces potent antinociception in neuropathic pain by acting at peripheral opioid receptors. European journal of pharmacology 594: 84-92). The baseline values varied between 65-75 g of force. Animals with baseline out of this range (about 10%) were excluded prior to initiating the study in order to achieve uniform testing.

[8] = tested on: early growth response protein 1 (EGR1); assay: EGR1 immunohistochemistry of L4-L6 spinal cord; assay type: in vivo, rat; details: rats, 3 hours after carrageenan; carrageenan alone increased ~5 fold
Experimental: Immunohistochemistry. Animals were anesthetized with ketamine (90 mg/kg) and xylazine (15 mg/kg) after 3 hours of the experimental protocol. Subsequently, animals were perfused with 4% paraformaldehyde (PFA) in 0.1 M phosphate buffer (PB, pH 7.4). Spinal cord sections (L4-L6) were removed, post-fixed for 4 h in PFA (4%), and transferred to a 30% sucrose solution in PB to ensure cryoprotection. […] The sections were immunostained for early growth response-1 gene (EGR1) expression, using a rabbit polyclonal antibody (Santa Cruz Biotechnology 1:500) in PB containing 0.3% Triton X-100 and 5% normal donkey serum. Incubations with primary antibody were conducted overnight at 24° C. The sections were then washed in PB and incubated with a biotinylated donkey anti-rabbit serum (Vector, Burlingame 1:200) in PB for 2 h at 24° C. The sections were washed again in PB and incubated with the avidin-biotin-peroxidase complex (ABC Elite, Vector Labs, USA). The sections were then reacted with 0.05% 3,3-diaminobenzidine and 0.01% hydrogen peroxide in PB. Intensification was conducted with 0.05% osmium tetroxide in water. The sections were dehydrated, cleared and mounted on a cover-slip. Normal rat serum served as control. Digital images of light microscopy were collected and cells with positive EGR were counted.

In the case of `O=C(NCc1ccc2c(c1)OCO2)c1c(Cl)cccc1Cl` [Alda-1, N-(1,3-benzodioxol-5-ylmethyl)-2,6-dichlorobenzamide], the “Cardiovascular benefits after acute myocardial infarction” value [1] is listed as “reducing infarct size and arrhythmias”, the “Nociceptive threshold relative to vehicle-treated mice” value [2] is listed as “significantly increased pain threshold; also recorded: doubling the nociceptive threshold” and the “Response to nociceptive stimulus / pain threshold” value [3] is listed as “significantly increased pain threshold; also recorded: bringing the response to wild type levels”. For the same compound, the “4-HNE-protein adduct levels in the inflamed paw” value [4] was “reduced”, the “Increase of nociceptive threshold” value ([5]; prostaglandin E2-induced model, Alda-1 2 mg/kg s.c. 15 min before and 30 and 150 min after insult, tested 3 hours after insult) was 2 fold and the “Nociceptive threshold (FIG. 1B)” value ([5]; prostaglandin E2 insult, Alda-1 2 mg/kg s.c., 3 hours after insult, P<0.001) was “significantly increased nociceptive threshold”. The “Neutrophil elastase (marker of inflammation)” value [6] was 220±26, the “Nociceptive threshold when Alda-1 is given after the insult” value ([7]; Alda-1 2 mg/kg s.c. only 30 and 150 minutes after carrageenan, Randall-Selitto, P<0.0001, 2 mg/kg) was “increased the nociceptive threshold; also recorded: significantly increased nociceptive threshold” and the “Nociceptive threshold (FIG. 1B)” value ([7]; carrageenan insult, Alda-1 2 mg/kg s.c., 3 hours after insult, P<0.001) was “significantly increased nociceptive threshold”. For the same compound, the “Increase of nociceptive threshold” value ([7]; carrageenan-induced model, Alda-1 2 mg/kg s.c. 15 min before and 30 and 150 min after insult, tested 3 hours after insult) was 2 fold, the “Reduction of carrageenan-induced hyperalgesia compared with atenolol or celecoxib” value ([7]; comparison to previous publication using the same rat hyperalgesia model (Chacur et al, 2003)) was “more effective than atenolol or celecoxib” and the “Effect of Alda-1 on nociceptive threshold in the presence of naloxone” value ([7]; naloxone 1 mg/kg s.c. 10 minutes before each Alda-1 treatment, Alda-1 after carrageenan) was “not blunted”. For the same compound, the “EGR1 levels in L4-6 spinal cord (marker of hyperalgesia)” value [8] was “brought EGR1 levels to those seen in baseline; also recorded: brought back to basal levels”.
